Key:
Mus musculus [1] = assay: Increase of life span was determined against Ip implanted L1210 / 0 lymphoid leukemia in mice at a dose of 200 mg/kg per day after treatment 1,8,15,22; type: functional; details: L1210/0, ip, route intraperitoneal
Mus musculus [2] = assay: Increase of life span was determined against Ip implanted L1210 / ara-C (II) lymphoid leukemia in mice at a dose of 300 mg/kg per day; type: functional; details: route intraperitoneal
Mus musculus [3] = assay: Increase of life span was determined against Ip implanted L1210 / 0 lymphoid leukemia in mice at a dose of 400 mg/kg per day after treatment 1; type: functional; details: L1210/0, ip, route intraperitoneal
Mus musculus [4] = assay: Survival time of treated mice for antitumor activity against Ip implanted L1210 / 0 lymphoid leukemia in mice at a dose of 400 mg/kg per day after treatment 5;14.5/7; details: route intraperitoneal
Mus musculus [5] = assay: Range of survival days for antitumor activity against Ip implanted L1210 / 0 lymphoid leukemia in mice at a dose of 100 mg/kg per day after treatment 1,8,15,22;range is 16-32; type: functional; details: route intraperitoneal
Mus musculus [6] = assay: Increase of life span was determined against Ip implanted L1210 / 0 lymphoid leukemia in mice at a dose of 400 mg/kg per day after treatment 2; type: functional; details: L1210/0, ip, route intraperitoneal
Mus musculus [7] = assay: Median survival time for antitumor activity against Ip implanted L1210 / 0 lymphoid leukemia in mice at a dose of 300 mg/kg per day after treatment 1,15; details: route intraperitoneal
Mus musculus [8] = assay: Increase of life span was determined against Ip implanted L1210 / 0 lymphoid leukemia in mice at a dose of 400 mg/kg per day after treatment -1; type: functional; details: L1210/0, ip, route intraperitoneal
Mus musculus [9] = assay: Increase of life span was determined against Ip implanted L1210 / 0 lymphoid leukemia in mice at a dose of 400 mg/kg per day after treatment 5; type: functional; details: L1210/0, ip, route intraperitoneal
Mus musculus [10] = assay: Range of survival days for antitumor activity against Ip implanted L1210 / 0 lymphoid leukemia in mice at a dose of 200 mg/kg per day after treatment 1,8,15,22;range is 14->45; type: functional; details: route intraperitoneal
Mus musculus [11] = assay: Range of survival days for antitumor activity against Ip implanted L1210 / 0 lymphoid leukemia in mice at a dose of 400 mg/kg per day after treatment -1;range is 12->45; type: functional; details: route intraperitoneal
Mus musculus [12] = assay: Range of survival days for antitumor activity against Ip implanted L1210 / ara-C (II) lymphoid leukemia in mice at a dose of 300 mg/kg per day; type: functional; details: route intraperitoneal
Mus musculus [13] = assay: Increase of life span was determined against Ip implanted L1210 / ara-C (I) lymphoid leukemia in mice at a dose of 80 mg/kg per day; type: functional; details: route intraperitoneal
Mus musculus [14] = assay: Range of survival days for antitumor activity against Ip implanted L1210 / 0 lymphoid leukemia in mice at a dose of 200 mg/kg per day after treatment 5;range is 15-16; type: functional; details: route intraperitoneal
Mus musculus [15] = assay: Increase of life span was determined against Ip implanted L1210 / 0 lymphoid leukemia in mice at a dose of 200 mg/kg per day after treatment 1,15; type: functional; details: L1210/0, ip, route intraperitoneal
Mus musculus [16] = assay: Survival time treated for antitumor activity against Ip implanted L1210 / 0 lymphoid leukemia in mice at a dose of 400 mg/kg per day;>42.5/7; details: route intraperitoneal
Mus musculus [17] = assay: Range of survival days for antitumor activity against Ip implanted L1210 / 0 lymphoid leukemia in mice at a dose of 100 mg/kg per day after treatment 1,5,9;range is 18-29; type: functional; details: route intraperitoneal
Mus musculus [18] = assay: Survival time treated for antitumor activity against Ip implanted L1210 / 0 lymphoid leukemia in mice at a dose of 200 mg/kg per day after treatment 1,15;27.5/7; details: route intraperitoneal
Mus musculus [19] = assay: Median survival time for antitumor activity against Ip implanted L1210 / ara-C (I) lymphoid leukemia in mice at a dose of 133 mg/kg per day; details: route intraperitoneal
Mus musculus [20] = assay: Range of survival days for antitumor activity against Ip implanted L1210 / 0 lymphoid leukemia in mice at a dose of 400 mg/kg per day after treatment 5;range is 12-16; type: functional; details: route intraperitoneal
Mus musculus [21] = assay: Range of survival days for antitumor activity against Ip implanted L1210 / ara-C (I) lymphoid leukemia in mice at a dose of 400 mg/kg per day; type: functional; details: route intraperitoneal
Mus musculus [22] = assay: Range of survival days for antitumor activity against Ip implanted L1210 / 0 lymphoid leukemia in mice at a dose of 60 mg/kg per day after treatment 1-5;range is 27->45; type: functional; details: route intraperitoneal
Mus musculus [23] = assay: Survival time treated/survival time tested (T/C) for antitumor activity against Ip implanted L1210 / ara-C (II) lymphoid leukemia in mice at a dose of 300 mg/kg per day; type: functional; details: route intraperitoneal
Mus musculus [24] = assay: Survival time treated for antitumor activity against Ip implanted L1210 / 0 lymphoid leukemia in mice at a dose of 300 mg/kg per day after treatment 1;33/7; details: route intraperitoneal
Mus musculus [25] = assay: Increase of life span was determined against Ip implanted L1210 / 0 lymphoid leukemia in mice at a dose of 100 mg/kg per day after treatment 1,5,9; type: functional; details: L1210/0, ip, route intraperitoneal
Mus musculus [26] = assay: Median survival time for antitumor activity against Ip implanted L1210 / ara-C (I) lymphoid leukemia in mice at a dose of 400 mg/kg per day; details: route intraperitoneal
Mus musculus [27] = assay: Range of survival days for antitumor activity against Ip implanted L1210 / ara-C(I) lymphoid leukemia in mice at a dose of 80 mg/kg per day; type: functional; details: route intraperitoneal
Mus musculus [28] = assay: Range of survival days for antitumor activity against Ip implanted L1210 / ara-C (I) lymphoid leukemia in mice at a dose of 133 mg/kg per day; type: functional; details: route intraperitoneal
Mus musculus [29] = assay: Range of survival days for antitumor activity against Ip implanted L1210 / 0 lymphoid leukemia in mice at a dose of 400 mg/kg per day after treatment 1;range is 9->45; type: functional; details: route intraperitoneal
Mus musculus [30] = assay: Survival time of treated mice for antitumor activity against Ip implanted L1210 / 0 lymphoid leukemia in mice at a dose of 100 mg/kg per day after treatment 1,5,9;25/8; details: route intraperitoneal
Mus musculus [31] = assay: Increase of life span was determined against Ip implanted L1210 / 0 lymphoid leukemia in mice at a dose of 300 mg/kg per day after treatment 1,15; type: functional; details: L1210/0, ip, route intraperitoneal
Mus musculus [32] = assay: Range of survival days for antitumor activity against Ip implanted L1210 / 0 lymphoid leukemia in mice at a dose of 300 mg/kg per day after treatment 1,15;range is 21->45; type: functional; details: route intraperitoneal
Mus musculus [33] = assay: Range of survival days for antitumor activity against Ip implanted L1210 / 0 lymphoid leukemia in mice at a dose of 400 mg/kg per day after treatment 0;range is 14->45; details: route intraperitoneal
Mus musculus [34] = assay: Increase of life span was determined against Ip implanted L1210 / 0 lymphoid leukemia in mice at a dose of 200 mg/kg per day after treatment 1; type: functional; details: L1210/0, ip, route intraperitoneal
Mus musculus [35] = assay: Range of survival days for antitumor activity against Ip implanted L1210 / 0 lymphoid leukemia in mice at a dose of 300 mg/kg per day after treatment 1;range is 18->45; type: functional; details: route intraperitoneal

CCCCCCCCCCCCCCCCCCSCC(COP(=O)(O)OP(=O)(O)OC[C@H]1O[C@@H](n2ccc(N)nc2=O)[C@@H](O)[C@@H]1O)OC(=O)CCCCCCCCCCCCCCC (mixture of isomers)
ILS at 200 mg/kg/day (Mus musculus [1]): 250%
ILS at 300 mg/kg/day (Mus musculus [2]): 0%
ILS at 400 mg/kg/day (Mus musculus [3]): 321%
survival time (Mus musculus [4]): 14.5 days
Range of survival days (Mus musculus [5]): 16
ILS at 400 mg/kg/day (Mus musculus [6]): 179%
median survival time (Mus musculus [7]): 24.5 days
ILS at 400 mg/kg/day (Mus musculus [8]): 207%
ILS at 400 mg/kg/day (Mus musculus [9]): 107%
Range of survival days (Mus musculus [10]): >14
Range of survival days (Mus musculus [11]): >12
Range (Mus musculus [12]): 8
ILS at 80 mg/kg/day (Mus musculus [13]): > 350%
Range of survival days (Mus musculus [14]): 15
ILS at 200 mg/kg/day (Mus musculus [15]): 293%
survival time (Mus musculus [16]): > 42.5 days
Range of survival days (Mus musculus [17]): 18
survival time (Mus musculus [18]): 27.5 days
median survival time (Mus musculus [19]): > 45 days
Range of survival days (Mus musculus [20]): 12
Range (Mus musculus [21]): >45
Range of survival days (Mus musculus [22]): >27
median survival time (Mus musculus [23]): 9 days
survival time (Mus musculus [24]): 33 days
ILS at 100 mg/kg/day (Mus musculus [25]): 213%
median survival time (Mus musculus [26]): > 45 days
Range (Mus musculus [27]): >25
Range (Mus musculus [28]): >45
Range of survival days (Mus musculus [29]): >9
survival time (Mus musculus [30]): 25 days
ILS at 300 mg/kg/day (Mus musculus [31]): 243%
Range of survival days (Mus musculus [32]): >21
Range of survival days (Mus musculus [33]): >14
ILS at 200 mg/kg/day (Mus musculus [34]): 357%
Range of survival days (Mus musculus [35]): >18

Reference: ChEMBL document CHEMBL1124763, “Nucleoside conjugates. 11. Synthesis and antitumor activity of 1-beta-D-arabinofuranosylcytosine and cytidine conjugates of thioether lipids” (1990)
